Reference: US8952024B2, “Herbicidal pyrimidone derivatives” (E I du Pont de Nemours and Company, priority 2009, dated 2015)

What was measured:
Assay type in all cases: in vivo
[1] = system: Italian ryegrass (Lolium multiflorum); test: Test B pre-/postemergence plant response
Outline: (§1)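 Seeds were sown in loam soil/sand blend and treated preemergence with compound in non-phytotoxic solvent mixture containing surfactant; postemergence sprays, same formulation, went onto plants 2 to 18 cm (1- to 4-leaf stage) in peat-based planting medium. Greenhouse 13 to 15 days, then visual rating versus untreated controls, 0 (no effect) to 100 (complete control).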

[2] = system: bermudagrass (Cynodon dactylon); test: Test B pre-/postemergence plant response
Outline: as §1

[3] = system: blackgrass (Alopecurus myosuroides); test: Test B pre-/postemergence plant response
Outline: as §1

[4] = system: corn (Zea mays); test: Test B pre-/postemergence plant response
Outline: as §1

[5] = system: downy bromegrass (Bromus tectorum); test: Test B pre-/postemergence plant response
Outline: as §1

[6] = system: giant foxtail (Setaria faberii); test: Test B pre-/postemergence plant response
Outline: as §1

[7] = system: goosegrass (Eleusine indica); test: Test B pre-/postemergence plant response
Outline: as §1

[8] = system: green foxtail (Setaria viridis); test: Test B pre-/postemergence plant response
Outline: as §1

[9] = system: johnsongrass (Sorghum halepense); test: Test B pre-/postemergence plant response
Outline: as §1

[10] = system: morningglory (Ipomoea coccinea); test: Test B pre-/postemergence plant response
Outline: as §1

[11] = system: pigweed (Amaranthus retroflexus); test: Test B pre-/postemergence plant response
Outline: as §1

[12] = system: ragweed (common ragweed, Ambrosia elatior); test: Test B pre-/postemergence plant response
Outline: as §1

[13] = system: soybean (Glycine max); test: Test B pre-/postemergence plant response
Outline: as §1

[14] = system: velvetleaf (Abutilon theophrasti); test: Test B pre-/postemergence plant response
Outline: as §1

[15] = system: wheat (Triticum aestivum); test: Test B pre-/postemergence plant response
Outline: as §1

[16] = system: canarygrass (Phalaris minor); test: Test B postemergence plant response; conditions: Postemergence
Outline: (§2)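 Plants at the 1- to 4-leaf stage (2 to 18 cm tall), grown in pots of peat moss/vermiculite medium with wetting agent and starter nutrients, received postemergence applications of test chemicals. After 13 to 15 days in a greenhouse, injury was rated visually against untreated controls on a 0 (no effect) to 100 (complete control) scale.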

[17] = system: chickweed (Stellaria media); test: Test B postemergence plant response; conditions: Postemergence
Outline: as §2

[18] = system: winter barley (Hordeum vulgare); test: Test B postemergence plant response; conditions: Postemergence
Outline: as §2

[19] = Postemergence, 31 g ai/ha, 0 to 100 scale (0 no effect, 100 complete control)
[20] = Postemergence, 125 g ai/ha, scale 0 (no effect) to 100 (complete control), 13 to 15 days
[21] = Postemergence, 250 g ai/ha, scale 0 to 100 (0 no effect, 100 complete control), 13 to 15 days
[22] = Postemergence, 62 g ai/ha, scale 0 to 100 (0 no effect, 100 complete control)
[23] = Preemergence, 31 g ai/ha, scale 0 to 100 (0 no effect, 100 complete control)
[24] = Preemergence, 62 g ai/ha, scale 0 to 100, 0 no effect, 100 complete control
[25] = Preemergence, 125 g ai/ha, scale 0 to 100, 0 no effect, 100 complete control
[26] = Preemergence, 250 g ai/ha, 0 to 100 scale
[27] = 31 g ai/ha, 0 to 100 scale (0 no effect, 100 complete control)
[28] = 125 g ai/ha, scale 0 (no effect) to 100 (complete control), 13 to 15 days
[29] = 250 g ai/ha, scale 0 to 100 (0 no effect, 100 complete control), 13 to 15 days
[30] = 62 g ai/ha, scale 0 to 100 (0 no effect, 100 complete control)

COCCCn1c(-c2cc(F)cc(F)c2)ncc(C(=O)C2=C(O)C3CCC(C3)C2=O)c1=O (stereo not drawn) [Compound 244]
Plant response rating, Ryegrass, Italian [1, 19]: 35
Plant response rating, Ryegrass, Italian [1, 20]: 80
Plant response rating, Ryegrass, Italian [1, 21]: 95
Plant response rating, Ryegrass, Italian [1, 22]: 60
Plant response rating, Ryegrass, Italian [1, 23]: 0
Plant response rating, Ryegrass, Italian [1, 24]: 0
Plant response rating, Ryegrass, Italian [1, 25]: 5
Ryegrass, Italian plant response rating [1, 26]: 45
Plant response rating, Bermudagrass [2, 19]: 80
Plant response rating, Bermudagrass [2, 20]: 100
Plant response rating, Bermudagrass [2, 21]: 100
Plant response rating, Bermudagrass [2, 22]: 100
Plant response rating, Bermudagrass [2, 23]: 100
Plant response rating, Bermudagrass [2, 24]: 100
Plant response rating, Bermudagrass [2, 25]: 100
Bermudagrass plant response rating ([2]; Preemergence, 250 g ai/ha, 0 to 100 scale, 0 no effect, 100 complete control): 100
Plant response rating, Blackgrass [3, 19]: 50
Plant response rating, Blackgrass [3, 20]: 65
Plant response rating, Blackgrass [3, 21]: 85
Plant response rating, Blackgrass [3, 22]: 60
Plant response rating, Blackgrass [3, 23]: 35
Plant response rating, Blackgrass [3, 24]: 35
Plant response rating, Blackgrass [3, 25]: 60
Blackgrass plant response rating [3, 26]: 70
Plant response rating, Corn [4, 19]: 85
Plant response rating, Corn [4, 20]: 95
Plant response rating, Corn [4, 21]: 100
Plant response rating, Corn [4, 22]: 90
Plant response rating, Corn [4, 23]: 5
Plant response rating, Corn [4, 24]: 25
Plant response rating, Corn [4, 25]: 60
Corn plant response rating [4, 26]: 85
Plant response rating, Bromegrass, Downy [5, 19]: 40
Plant response rating, Bromegrass, Downy [5, 20]: 75
Plant response rating, Bromegrass, Downy [5, 21]: 80
Plant response rating, Bromegrass, Downy [5, 22]: 50
Plant response rating, Bromegrass, Downy [5, 23]: 0
Plant response rating, Bromegrass, Downy [5, 24]: 0
Plant response rating, Bromegrass, Downy [5, 25]: 5
Bromegrass, Downy plant response rating [5, 26]: 30
Plant response rating, Foxtail, Giant [6, 19]: 95
Plant response rating, Foxtail, Giant [6, 20]: 95
Plant response rating, Foxtail, Giant [6, 21]: 100
Plant response rating, Foxtail, Giant [6, 22]: 95
Plant response rating, Foxtail, Giant [6, 23]: 60
Plant response rating, Foxtail, Giant [6, 24]: 80
Plant response rating, Foxtail, Giant [6, 25]: 100
Foxtail, Giant plant response rating [6, 26]: 100
Plant response rating, Goosegrass [7, 19]: 85
Plant response rating, Goosegrass [7, 20]: 98
Plant response rating, Goosegrass [7, 21]: 98
Plant response rating, Goosegrass [7, 22]: 95
Plant response rating, Goosegrass [7, 23]: 98
Plant response rating, Goosegrass [7, 24]: 100
Plant response rating, Goosegrass [7, 25]: 100
Goosegrass plant response rating [7, 26]: 100
Plant response rating, Foxtail, Green [8, 19]: 85
Plant response rating, Foxtail, Green [8, 20]: 98
Plant response rating, Foxtail, Green [8, 21]: 100
Plant response rating, Foxtail, Green [8, 22]: 98
Plant response rating, Foxtail, Green [8, 23]: 0
Plant response rating, Foxtail, Green [8, 24]: 45
Plant response rating, Foxtail, Green [8, 25]: 90
Foxtail, Green plant response rating [8, 26]: 90
Plant response rating, Johnsongrass [9, 19]: 85
Plant response rating, Johnsongrass [9, 20]: 100
Plant response rating, Johnsongrass [9, 21]: 100
Plant response rating, Johnsongrass [9, 22]: 95
Plant response rating, Johnsongrass [9, 23]: 70
Plant response rating, Johnsongrass [9, 24]: 85
Plant response rating, Johnsongrass [9, 25]: 100
Johnsongrass plant response rating [9, 26]: 100
Plant response rating, Morningglory [10, 19]: 90
Plant response rating, Morningglory [10, 20]: 100
Plant response rating, Morningglory [10, 21]: 100
Plant response rating, Morningglory [10, 22]: 95
Plant response rating, Morningglory [10, 23]: 85
Plant response rating, Morningglory [10, 24]: 90
Plant response rating, Morningglory [10, 25]: 98
Morningglory plant response rating [10, 26]: 100
Plant response rating, Pigweed [11, 19]: 95
Plant response rating, Pigweed [11, 20]: 100
Plant response rating, Pigweed [11, 21]: 100
Plant response rating, Pigweed [11, 22]: 100
Plant response rating, Pigweed [11, 23]: 100
Plant response rating, Pigweed [11, 24]: 100
Plant response rating, Pigweed [11, 25]: 100
Pigweed plant response rating [11, 26]: 100
Plant response rating, Ragweed [12, 19]: 98
Plant response rating, Ragweed [12, 20]: 98
Plant response rating, Ragweed [12, 21]: 100
Plant response rating, Ragweed [12, 22]: 98
Plant response rating, Ragweed [12, 23]: 70
Plant response rating, Ragweed [12, 24]: 95
Plant response rating, Ragweed [12, 25]: 100
Ragweed plant response rating [12, 26]: 100
Plant response rating, Soybean [13, 19]: 85
Plant response rating, Soybean [13, 20]: 100
Plant response rating, Soybean [13, 21]: 100
Plant response rating, Soybean [13, 22]: 100
Plant response rating, Soybean [13, 23]: 70
Plant response rating, Soybean [13, 24]: 80
Plant response rating, Soybean [13, 25]: 90
Soybean plant response rating [13, 26]: 95
Plant response rating, Velvetleaf [14, 19]: 100
Plant response rating, Velvetleaf [14, 20]: 100
Plant response rating, Velvetleaf [14, 21]: 100
Plant response rating, Velvetleaf [14, 22]: 100
Plant response rating, Velvetleaf [14, 23]: 100
Plant response rating, Velvetleaf [14, 24]: 100
Plant response rating, Velvetleaf [14, 25]: 100
Velvetleaf plant response rating [14, 26]: 100
Plant response rating, Wheat [15, 19]: 60
Plant response rating, Wheat [15, 20]: 85
Plant response rating, Wheat [15, 21]: 95
Plant response rating, Wheat [15, 22]: 80
Plant response rating, Wheat [15, 23]: 0
Plant response rating, Wheat [15, 24]: 0
Plant response rating, Wheat [15, 25]: 5
Wheat plant response rating [15, 26]: 45
Plant response rating, Canarygrass [16, 27]: 80
Plant response rating, Canarygrass [16, 28]: 98
Plant response rating, Canarygrass [16, 29]: 100
Plant response rating, Canarygrass [16, 30]: 95
Plant response rating, Chickweed [17, 27]: 80
Plant response rating, Chickweed [17, 28]: 98
Plant response rating, Chickweed [17, 29]: 100
Plant response rating, Chickweed [17, 30]: 95
Plant response rating, Barley [18, 27]: 50
Plant response rating, Barley [18, 28]: 90
Plant response rating, Barley [18, 29]: 98
Plant response rating, Barley [18, 30]: 65
